Common to all, as to format: physicochemical
Series [1] is described as follows: Solubility limit in water from surface tension/ln concentration curve. Conditions: distilled water, 25° C. As to the method:
(§1) Solutions of the materials of Examples 1-10 in distilled water were prepared. […] The pC20 value is defined as the negative logarithm of the molar concentration of surfactant required to decrease the surface tension of an aqueous solution to […], that is, 20 dyne/cm below that of pure water when the measurement is performed at 0.1 b/s. This value is a measure of the efficiency of a surfactant. […] In addition, the relative efficiency of surfactants can be obtained by comparing surface tension reduction of solutions containing the same amount of different surfactants. Such data is given for 0.1 wt % solutions of the dialkylmalates at 1.0 and 6.0 bubbles/second (b/s). The solubility limit was determined by intersection of the linear portion of a surface tension/In concentration curve with the limiting surface tension as is described in many textbooks. The limiting surface tensions at 0.1, 1, 6 and 20 b/s represent the lowest surface tensions in water which can be achieved at the given surface creation rates for a given surfactant regardless of the amount of surfactant used and is used to evaluate the effectiveness of a surfactant. These values give information about the relative ability of a surfactant to reduce surface defects under near-equilibrium conditions (0.1 b/s) through very dynamic conditions (20 b/s). Lower surface tensions would allow the elimination of defects upon application of a formulation onto lower energy surfaces.

Series [2] is described as follows: Foam test of 0.1 wt % solutions, procedure based upon ASTM D 1173-53. The following applies: 0.1 wt % solution. As to the method:
The foaming properties of 0.1 wt % solutions of the dialkylmalate surfactants of this invention were examined using a procedure based upon ASTM D 1173-53. In this test, a 0.1 wt % solution of the surfactant is added from an elevated foam pipette to a foam receiver containing the same solution. The foam height is measured at the completion of the addition (“Initial Foam Height”) and the time required for the foam to dissipate at the air-liquid interface (“Time to 0 Foam”) is recorded. This test provides a comparison between the foaming characteristics of various surfactant solutions. In general, in coatings, inks, adhesives, fountain solutions and agricultural compositions, foam is undesirable because it complicates handling and can lead to coating and print defects, and to inefficient application of agricultural materials.

Series [3] is described as follows: Dynamic surface tension of aqueous solutions, maximum bubble pressure method. Conditions: for γ(0.1 wt % solution) (1 b/s) / γ(0.1 wt % solution) (6 b/s) / pC20 / limiting γ (0.1 b/s) / limiting γ (1 b/s) / limiting γ (6 b/s) / limiting γ (20 b/s): 25° C.; for pC20: negative logarithm of molar concentration giving 52.1 dyne/cm at 0.1 b/s; for limiting γ (0.1 b/s) / limiting γ (1 b/s) / limiting γ (6 b/s) / limiting γ (20 b/s): water.
Description: In the following Examples dynamic surface tension data were obtained for aqueous solutions of various compounds using the maximum bubble pressure method at bubble rates from 0.1 bubbles/second (b/s) to 20 b/s. […] In practical terms, high bubble rates correspond to high printing speeds in lithographic printing, high spray or roller velocities in coating applications, and rapid application rates for agricultural products.
as §1

As to `CCCCCOC(=O)CC(O)C(=O)OCCCCC` (racemic) [Example 5, Dipentyl-DL-malate], the solubility limit in series [1] is on record as 0.03 Weight %. For the same compound, in series [2], the initial foam amounted to 0.5 cm and the “time to zero foam” value is 0.2 s. In series [3], the “γ(0.1 wt % solution) (1 b/s)” value is on record as 38.2 dyne/cm, the “γ(0.1 wt % solution) (6 b/s)” value is reported as 40.5 dyne/cm, the pC20 turned out to be 3.52 and the “limiting γ (0.1 b/s)” value turned out to be 36.8 Dyne/cm. For the same compound, in series [3], the “limiting γ (1 b/s)” value is listed as 38.2 Dyne/cm and the “limiting γ (6 b/s)” value is 40.5 Dyne/cm. The “limiting γ (20 b/s)” value in series [3] (20 b/s) came out at 50.1 Dyne/cm.

On to `CC(C)CCOC(=O)CC(O)C(=O)OCCC(C)C` (racemic) [Example 6, Diisoamyl-DL-malate], for which the solubility limit in series [1] turned out to be 0.04 Weight %. Moreover, in series [2], the initial foam was found to be 0.3 cm and the “time to zero foam” value amounted to 0.3 s. For the same compound, in series [3], the “γ(0.1 wt % solution) (1 b/s)” value was 36.8 dyne/cm, the “γ(0.1 wt % solution) (6 b/s)” value is 39.5 dyne/cm, the pC20 was 3.86 and the “limiting γ (0.1 b/s)” value is 35.6 Dyne/cm. Moreover, in series [3], the “limiting γ (1 b/s)” value was 36.8 Dyne/cm and the “limiting γ (6 b/s)” value was 39.5 Dyne/cm. In addition, in series [3] (20 b/s), the “limiting γ (20 b/s)” value amounted to 48.0 Dyne/cm.

In turn, `CCCCCCOC(=O)CC(O)C(=O)OCCCCCC` (racemic) [Example 8, Dihexyl-DL-malate] registered a solubility limit in series [1] of 0.005 Weight %. In series [2], the initial foam stood at 0.5 cm and the “time to zero foam” value is 0.1 s. Further, in series [3], the “γ(0.1 wt % solution) (1 b/s)” value was 58.8 dyne/cm, the “γ(0.1 wt % solution) (6 b/s)” value came to 52.0 dyne/cm, the pC20 was 3.25 and the “limiting γ (0.1 b/s)” value was found to be 55.6 Dyne/cm. For the same compound, in series [3], the “limiting γ (1 b/s)” value is 65.2 Dyne/cm and the “limiting γ (6 b/s)” value is on record as 69.3 Dyne/cm. The “limiting γ (20 b/s)” value in series [3] (20 b/s) is 71.2 Dyne/cm.

Consider `CC(C)COC(=O)CC(O)C(=O)OCC(C)C` (racemic) [Example 3, Diisobutyl-DL-malate], for which the solubility limit in series [1] amounted to 0.4 Weight %. In addition, in series [2], the initial foam is 0.6 cm and the “time to zero foam” value was 0.2 s. Moreover, in series [3], the “γ(0.1 wt % solution) (1 b/s)” value amounted to 44.1 dyne/cm, the “γ(0.1 wt % solution) (6 b/s)” value is 45.2 dyne/cm, the pC20 turned out to be 3.08 and the “limiting γ (0.1 b/s)” value came out at 33.5 Dyne/cm. Further, in series [3], the “limiting γ (1 b/s)” value was 33.3 Dyne/cm and the “limiting γ (6 b/s)” value was 33.4 Dyne/cm. Besides, in series [3] (20 b/s), the “decrease in the limiting surface tension compared to dibutyl-DL-malate” value is on record as 3.3 dyne/cm and the “limiting γ (20 b/s)” value came to 35.3 Dyne/cm. The “limiting γ (20 b/s)” value in series [3] (20 b/s, listed as diisobutyl-DL-malate) is given as “less than 36 Dyne/cm”.

In series [1], `CC(C)OC(=O)C[C@H](O)C(=O)OC(C)C` [Example 1, Diisopropyl-(S)-(−)-malate] showed a solubility limit of 5 Weight %. Further, in series [2], the initial foam is 1.3 cm and the “time to zero foam” value is 14 s. In series [3], the “γ(0.1 wt % solution) (1 b/s)” value is 59.2 dyne/cm, the “γ(0.1 wt % solution) (6 b/s)” value was determined as 60.1 dyne/cm, the pC20 was 1.83 and the “limiting γ (0.1 b/s)” value worked out at 33.6 Dyne/cm. Moreover, in series [3], the “limiting γ (1 b/s)” value is 33.8 Dyne/cm and the “limiting γ (6 b/s)” value is reported as 34.0 Dyne/cm. Moreover, in series [3] (20 b/s), the “limiting γ (20 b/s)” value stood at 35.3 Dyne/cm. Further, the “limiting γ (20 b/s)” value in series [3] (20 b/s, listed as diisopropyl-(S)-(−)-malate) is < 34 Dyne/cm.

On to `CCCCOC(=O)CC(O)C(=O)OCCCC` (racemic) [Example 2, Dibutyl-DL-malate], for which the solubility limit in series [1] came to 0.3 Weight %. In addition, in series [2], the initial foam is reported as 0.9 cm and the “time to zero foam” value was 20 s. Also, in series [3], the “γ(0.1 wt % solution) (1 b/s)” value was 43.8 dyne/cm, the “γ(0.1 wt % solution) (6 b/s)” value is given as 44.8 dyne/cm, the pC20 worked out at 3.04 and the “limiting γ (0.1 b/s)” value is 35.8 Dyne/cm. In series [3], the “limiting γ (1 b/s)” value is listed as 36.0 Dyne/cm and the “limiting γ (6 b/s)” value came to 36.5 Dyne/cm. In addition, the “limiting γ (20 b/s)” value in series [3] (20 b/s) is on record as 38.6 Dyne/cm.

In turn, `CC(C)CC(C)OC(=O)CC(O)C(=O)OC(C)CC(C)C` (racemic) [Example 9, Di(4-methyl-2-pentyl)-DL-malate] yielded a solubility limit in series [1] of 0.02 Weight %. For the same compound, in series [2], the initial foam is recorded as 0 cm and the “time to zero foam” value stood at 0 s. In addition, in series [3], the “γ(0.1 wt % solution) (1 b/s)” value was 46.2 dyne/cm, the “γ(0.1 wt % solution) (6 b/s)” value was 56.4 dyne/cm, the pC20 is reported as 3.84 and the “limiting γ (0.1 b/s)” value was 40.8 Dyne/cm. For the same compound, in series [3], the “limiting γ (1 b/s)” value was determined as 50.9 Dyne/cm and the “limiting γ (6 b/s)” value was found to be 63.9 Dyne/cm. For the same compound, the “limiting γ (20 b/s)” value in series [3] (20 b/s) came to 69.4 Dyne/cm.

`CCC(C)OC(=O)CC(O)C(=O)OC(C)CC` (racemic) [Example 4, Di-sec-butyl-DL-malate] yielded a solubility limit in series [1] of 0.6 Weight %. Also, in series [2], the initial foam is reported as 1.0 cm and the “time to zero foam” value stood at 60 s. Besides, in series [3], the “γ(0.1 wt % solution) (1 b/s)” value is recorded as 47.8 dyne/cm, the “γ(0.1 wt % solution) (6 b/s)” value is 48.5 dyne/cm, the pC20 was 2.77 and the “limiting γ (0.1 b/s)” value turned out to be 36.5 Dyne/cm. In addition, in series [3], the “limiting γ (1 b/s)” value is recorded as 36.7 Dyne/cm and the “limiting γ (6 b/s)” value is recorded as 37.3 Dyne/cm. Moreover, the “limiting γ (20 b/s)” value in series [3] (20 b/s) amounted to 38.1 Dyne/cm.

With `O=C(CC(O)C(=O)OCc1ccccc1)OCc1ccccc1` (racemic) [Example 10, Dibenzyl-DL-malate], in series [1], the solubility limit is on record as 0.08 Weight %. Besides, in series [2], the initial foam is 0 cm and the “time to zero foam” value turned out to be 0 s. Besides, in series [3], the “γ(0.1 wt % solution) (1 b/s)” value was found to be 61.5 dyne/cm, the “γ(0.1 wt % solution) (6 b/s)” value is listed as 65.2 dyne/cm, the pC20 was determined as 2.23 and the “limiting γ (0.1 b/s)” value turned out to be 54.0 Dyne/cm. In series [3], the “limiting γ (1 b/s)” value worked out at 57.7 Dyne/cm and the “limiting γ (6 b/s)” value worked out at 60.3 Dyne/cm. The “limiting γ (20 b/s)” value in series [3] (20 b/s) came to 70.0 Dyne/cm.

Turning to `CCC(C)COC(=O)CC(O)C(=O)OCC(C)CC` (racemic) [Example 7, Di(2-methylbutyl)-DL-malate], the solubility limit in series [1] was 0.04 Weight %. Also, in series [2], the initial foam turned out to be 1.2 cm and the “time to zero foam” value came to 0.1 s. In addition, in series [3], the “γ(0.1 wt % solution) (1 b/s)” value stood at 38.9 dyne/cm, the “γ(0.1 wt % solution) (6 b/s)” value is recorded as 41.2 dyne/cm, the pC20 came out at 3.47 and the “limiting γ (0.1 b/s)” value is reported as 37.8 Dyne/cm. In series [3], the “limiting γ (1 b/s)” value was 38.9 Dyne/cm and the “limiting γ (6 b/s)” value was 41.2 Dyne/cm. Moreover, in series [3] (20 b/s), the “limiting γ (20 b/s)” value was found to be 49.7 Dyne/cm.

These data come from patent US6969738B2, “Malic acid diester surfactants” (Air Products and Chemicals, Inc., priority 1999, dated 2005).
